Assay results from patent US20100209536A1, “Methods and Kits for Use in the Treatment and Prevention of Diseases or Conditions of the Immune System or Infectious Diseases” (The Brigham and Women's Hospital, Inc., priority 2006, published 2010).

Experiments:
[1] = tested on: recurrent wheeze in the first 2 yrs; assay: Project Viva antioxidant study: maternal intake and recurrent wheeze in the first 2 yrs; assay type: in vivo, human; details: including supplements
Description: (§1) Study subjects were enrolled in Project Viva, as described above. Recruitment and retention procedures have previously been published (Gillman et al., J. Pediatr. 144:240-245, 2004). We obtained information directly from participants and from medical records as detailed previously (Rifas-Shiman, Paediatr. Perinat. Epidemiol. 20:35-42, 2006). Data collected from interviews and questionnaires included demographics (infant gender, maternal marital status, and race), socioeconomic status (education and household income), and reproductive history (maternal gravidity, pre-pregnancy height and body mass index, and smoking). Questionnaires that inquired about infant health, feeding, and the home environment were administered when the child was 6 months, 1 year, and 2 years of age. Among 2,128 delivered infants in Project Viva, we excluded 228 participants because of missing first and second trimester diet assessment data and an additional 37 participants with a gestation of less than 34 completed weeks.
(§2) We assessed maternal diet using semi-quantitative food-frequency questionnaires (FFQ) validated for use during pregnancy (Fawzi et al., Ann. Epidemiol. 14:754-762, 2004), and used in several of our previous studies of maternal diet and offspring outcomes (Oken et al., Am. J. Epidemiol. 160:774-783, 2004; Huh et al., Int. J. Epidemiol. 34:378-384, 2005; Gillman et al., Circulation 110:1990-1995, 2004). As noted above, the FFQ used at the 1st visit reflected intakes in the 1st trimester; the time referent was “during this pregnancy,” that is from the date of the last menstrual period until the assessment, at an average of about 10 weeks gestation. To assess vitamin and supplement intake during the 1st trimester, we administered a separate interview that queried dose, duration, and brand/type of multivitamin, prescribed prenatal vitamins, and supplements. Also as noted above, the FFQ used at the 2nd visit (26 to 28 weeks of gestation) reflected intakes during the 2nd trimester; the time referent was “during the past 3 months.” The 2nd trimester instrument was the same as that for the 1st trimester except that we assessed use of vitamins/supplements as part of the self-completed FFQ.
(§3) To calculate intake of nutrients, we again used the Harvard nutrient composition database, which contains food composition values from the U.S. Department of Agriculture, supplemented by other data sources (U.S. Department of Agriculture ARS. USDA National Nutrient Database for Standard Reference, Release 14, 5R14; 2001). All nutrients were adjusted for total energy intake using the nutrient residuals method (Willett, Am. J. Clin. Nutr. 45:354-360, 1987). Mean nutrient intakes from the 1st and 2nd trimesters were used as the exposure in the analyses. If a participant only completed one FFQ, then nutrients calculated from that questionnaire were taken as the exposure of interest. One thousand one hundred and thirty-five (88.0%) of the 1,290 participants completed both FFQs, 96 (7.4%) completed the first trimester FFQ only, and 59 (4.6%) completed the second trimester FFQ only.
(§4) We ascertained the wheeze outcomes from questions from the First Year and Second Year Questionnaires: “since your child was born/since your child was […], has he/she ever had wheezing (or whistiling in the chest)?” “Any wheeze” was defined as a positive response to the question at either the first or second year questionnaire. “Recurrent wheeze” was defined as positive responses to the questions in both the first and second year questionnaires. […] “Respiratory infections” was defined as positive responses to one of three questions: “since your child was born/12 months old, have you been told by a health care professional (such as a doctor, physician assistant, or nurse practitioner) that your child has: (a) bronchiolitis; (b) pneumonia; (c) bronchitis, croup, or any other respiratory infection?” on either the first or second year questionnaires. […]

[2] = tested on: any wheeze in the first 2 yrs; assay: Project Viva antioxidant study: maternal intake and any wheeze in the first 2 yrs; assay type: in vivo, human; details: for Any wheeze in the first 2 yrs, Univariate Model OR (95% CI) / Any wheeze in the first 2 yrs, Multivariable Model OR (95% CI): including supplements; for Association of total maternal intake with any wheeze in univariable models: total intakes
Description: as §1, §2, §3, §4

[3] = 2nd vs 1st (lowest) quartile of maternal intake
[4] = 2nd vs 1st (lowest) quartile of maternal intake, n = 1,038
[5] = 3rd vs 1st (lowest) quartile of maternal intake
[6] = 4th (highest) vs 1st (lowest) quartile of maternal intake
[7] = 2nd vs 1st (lowest) quartile of maternal intake, calorie adjusted, n = 1,161

[Cu] [Copper, copper]
Recurrent wheeze in the first 2 yrs, Multivariable Model OR (95% CI) [1, 3]: 0.75 (0.43, 1.30)
Recurrent wheeze in the first 2 yrs, Univariate Model OR (95% CI) [1, 4]: 0.63 (0.38, 1.03)
Recurrent wheeze in the first 2 yrs, Multivariable Model OR (95% CI) [1, 5]: 1.02 (0.60, 1.75)
Recurrent wheeze in the first 2 yrs, Univariate Model OR (95% CI) [1, 5]: 0.67 (0.41, 1.09)
Recurrent wheeze in the first 2 yrs, Multivariable Model OR (95% CI) [1, 6]: 0.90 (0.51, 1.59)
Recurrent wheeze in the first 2 yrs, Univariate Model OR (95% CI) [1, 6]: 0.57 (0.34, 0.95)^5
Any wheeze in the first 2 yrs, Univariate Model OR (95% CI) [2, 7]: 0.78 (0.55, 1.10)
Any wheeze in the first 2 yrs, Multivariable Model OR (95% CI) [2, 3]: 0.93 (0.64, 1.35)
Any wheeze in the first 2 yrs, Multivariable Model OR (95% CI) [2, 5]: 0.91 (0.62, 1.34)
Any wheeze in the first 2 yrs, Univariate Model OR (95% CI) [2, 5]: 0.71 (0.50, 1.01)
Any wheeze in the first 2 yrs, Multivariable Model OR (95% CI) [2, 6]: 0.90 (0.61, 1.33)
Any wheeze in the first 2 yrs, Univariate Model OR (95% CI) [2, 6]: 0.69 (0.49, 0.99)^5
Association of total maternal intake with any wheeze in univariable models [2]: associated with lower risks

Nc1nc2ncc(CNc3ccc(C(=O)N[C@@H](CCC(=O)O)C(=O)O)cc3)nc2c(=O)[nH]1 [Folic acid, folic acid]
Recurrent wheeze in the first 2 yrs, Multivariable Model OR (95% CI) [1, 3]: 0.93 (0.55, 1.58)
Recurrent wheeze in the first 2 yrs, Univariate Model OR (95% CI) [1, 4]: 0.77 (0.48, 1.24)
Recurrent wheeze in the first 2 yrs, Multivariable Model OR (95% CI) [1, 5]: 0.75 (0.43, 1.28)
Recurrent wheeze in the first 2 yrs, Univariate Model OR (95% CI) [1, 5]: 0.58 (0.35, 0.95)^5
Recurrent wheeze in the first 2 yrs, Multivariable Model OR (95% CI) [1, 6]: 0.68(0.38, 1.22)
Recurrent wheeze in the first 2 yrs, Univariate Model OR (95% CI) [1, 6]: 0.46 (0.27, 0.78)^5
Any wheeze in the first 2 yrs, Univariate Model OR (95% CI) [2, 7]: 0.94 (0.67, 1.32)
Any wheeze in the first 2 yrs, Multivariable Model OR (95% CI) [2, 3]: 1.13 (0.78, 1.64)
Any wheeze in the first 2 yrs, Multivariable Model OR (95% CI) [2, 5]: 0.79 (0.54, 1.16)
Any wheeze in the first 2 yrs, Univariate Model OR (95% CI) [2, 5]: 0.63 (0.44, 0.89)^5
Any wheeze in the first 2 yrs, Multivariable Model OR (95% CI) [2, 6]: 0.89 (0.60, 1.31)
Any wheeze in the first 2 yrs, Univariate Model OR (95% CI) [2, 6]: 0.64 (0.45, 0.91)^5
Association of total maternal intake with any wheeze in univariable models [2]: associated with lower risks

CC(C)=CCC/C(C)=C/C=C/C(C)=C/C=C/C(C)=C/C=C/C=C(C)/C=C/C=C(C)/C=C/C=C(\C)CCC=C(C)C [Lycopene, lycopene]
Recurrent wheeze in the first 2 yrs, Multivariable Model OR (95% CI) [1, 3]: 1.06 (0.62, 1.83)
Recurrent wheeze in the first 2 yrs, Univariate Model OR (95% CI) [1, 4]: 0.88 (0.53, 1.46)
Recurrent wheeze in the first 2 yrs, Multivariable Model OR (95% CI) [1, 5]: 1.40 (0.82, 2.40)
Recurrent wheeze in the first 2 yrs, Univariate Model OR (95% CI) [1, 5]: 1.01 (0.62, 1.64)
Recurrent wheeze in the first 2 yrs, Multivariable Model OR (95% CI) [1, 6]: 0.75 (0.42, 1.33)
Recurrent wheeze in the first 2 yrs, Univariate Model OR (95% CI) [1, 6]: 0.70 (0.42, 1.17)
Any wheeze in the first 2 yrs, Univariate Model OR (95% CI) [2, 7]: 1.27 (0.90, 1.80)
Any wheeze in the first 2 yrs, Multivariable Model OR (95% CI) [2, 3]: 1.50 (1.02, 2.19)
Any wheeze in the first 2 yrs, Multivariable Model OR (95% CI) [2, 5]: 1.67 (1.14, 2.45)
Any wheeze in the first 2 yrs, Univariate Model OR (95% CI) [2, 5]: 1.26 (0.90, 1.79)
Any wheeze in the first 2 yrs, Multivariable Model OR (95% CI) [2, 6]: 0.96 (0.64, 1.42)
Any wheeze in the first 2 yrs, Univariate Model OR (95% CI) [2, 6]: 0.83 (0.58, 1.19)

CC1=CCCC(C)(C)C1/C=C/C(C)=C/C=C/C(C)=C/C=C/C=C(C)/C=C/C=C(C)/C=C/C1=C(C)CCCC1(C)C (stereo not drawn) [α Carotene, α-carotene]
Recurrent wheeze in the first 2 yrs, Multivariable Model OR (95% CI) [1, 3]: 1.22 (0.71, 2.09)
Recurrent wheeze in the first 2 yrs, Univariate Model OR (95% CI) [1, 4]: 0.98 (0.60, 1.60)
Recurrent wheeze in the first 2 yrs, Multivariable Model OR (95% CI) [1, 5]: 1.01 (0.57, 1.80)
Recurrent wheeze in the first 2 yrs, Univariate Model OR (95% CI) [1, 5]: 0.74 (0.43, 1.25)
Recurrent wheeze in the first 2 yrs, Multivariable Model OR (95% CI) [1, 6]: 1.26 (0.72, 2.21)
Recurrent wheeze in the first 2 yrs, Univariate Model OR (95% CI) [1, 6]: 0.88 (0.53, 1.45)
Any wheeze in the first 2 yrs, Univariate Model OR (95% CI) [2, 7]: 0.77 (0.54, 1.09)
Any wheeze in the first 2 yrs, Multivariable Model OR (95% CI) [2, 3]: 0.87 (0.60, 1.26)
Any wheeze in the first 2 yrs, Multivariable Model OR (95% CI) [2, 5]: 1.00 (0.69, 1.45)
Any wheeze in the first 2 yrs, Univariate Model OR (95% CI) [2, 5]: 0.82 (0.58, 1.16)
Any wheeze in the first 2 yrs, Multivariable Model OR (95% CI) [2, 6]: 0.92 (0.63, 1.34)
Any wheeze in the first 2 yrs, Univariate Model OR (95% CI) [2, 6]: 0.75 (0.53, 1.06)

CC1=C(/C=C/C(C)=C/C=C/C(C)=C/C=C/C=C(C)/C=C/C=C(C)/C=C/C2=C(C)CCCC2(C)C)C(C)(C)CCC1 [β Carotene, β-carotene]
Recurrent wheeze in the first 2 yrs, Multivariable Model OR (95% CI) [1, 3]: 1.24 (0.72, 2.13)
Recurrent wheeze in the first 2 yrs, Univariate Model OR (95% CI) [1, 4]: 0.85 (0.52, 1.37)
Recurrent wheeze in the first 2 yrs, Multivariable Model OR (95% CI) [1, 5]: 1.23 (0.72, 2.13)
Recurrent wheeze in the first 2 yrs, Univariate Model OR (95% CI) [1, 5]: 0.76 (0.46, 1.24)
Recurrent wheeze in the first 2 yrs, Multivariable Model OR (95% CI) [1, 6]: 1.01 (0.56, 1.81)
Recurrent wheeze in the first 2 yrs, Univariate Model OR (95% CI) [1, 6]: 0.58 (0.34, 0.97)^5
Any wheeze in the first 2 yrs, Univariate Model OR (95% CI) [2, 7]: 1.01 (0.71, 1.41)
Any wheeze in the first 2 yrs, Multivariable Model OR (95% CI) [2, 3]: 1.28 (0.88, 1.88)
Any wheeze in the first 2 yrs, Multivariable Model OR (95% CI) [2, 5]: 1.21 (0.82, 1.77)
Any wheeze in the first 2 yrs, Univariate Model OR (95% CI) [2, 5]: 0.85 (0.60, 1.20)
Any wheeze in the first 2 yrs, Multivariable Model OR (95% CI) [2, 6]: 0.98 (0.66, 1.47)
Any wheeze in the first 2 yrs, Univariate Model OR (95% CI) [2, 6]: 0.71 (0.50, 1.02)
Association of total maternal intake with any wheeze in univariable models [2]: associated with lower risks

CC1=C(/C=C/C(C)=C/C=C/C(C)=C/C=C/C=C(C)/C=C/C=C(C)/C=C/C2=C(C)C[C@@H](O)CC2(C)C)C(C)(C)CCC1 [β Cryptoxanthin]
Recurrent wheeze in the first 2 yrs, Multivariable Model OR (95% CI) [1, 3]: 1.33 (0.78, 2.28)
Recurrent wheeze in the first 2 yrs, Univariate Model OR (95% CI) [1, 4]: 1.36 (0.82, 2.24)
Recurrent wheeze in the first 2 yrs, Multivariable Model OR (95% CI) [1, 5]: 0.97 (0.55, 1.72)
Recurrent wheeze in the first 2 yrs, Univariate Model OR (95% CI) [1, 5]: 0.95 (0.56, 1.63)
Recurrent wheeze in the first 2 yrs, Multivariable Model OR (95% CI) [1, 6]: 1.28 (0.73, 2.26)
Recurrent wheeze in the first 2 yrs, Univariate Model OR (95% CI) [1, 6]: 1.05 (0.62, 1.78)
Any wheeze in the first 2 yrs, Univariate Model OR (95% CI) [2, 7]: 0.80 (0.57, 1.13)
Any wheeze in the first 2 yrs, Multivariable Model OR (95% CI) [2, 3]: 0.82 (0.57, 1.18)
Any wheeze in the first 2 yrs, Multivariable Model OR (95% CI) [2, 5]: 0.81 (0.56, 1.18)
Any wheeze in the first 2 yrs, Univariate Model OR (95% CI) [2, 5]: 0.72 (0.51, 1.02)
Any wheeze in the first 2 yrs, Multivariable Model OR (95% CI) [2, 6]: 0.97 (0.67, 1.41)
Any wheeze in the first 2 yrs, Univariate Model OR (95% CI) [2, 6]: 0.92 (0.66, 1.30)
